# Where two headings read alike, the source gives them in different places.
# Columns and labels:
# Format in all cases: binding
# [1] = biological target: T1, HeLa cell extract proteins (Homo sapiens, UniProt O43776); settings: protein NARS; HeLa
# T1 construct: endogenous in cells; host or cells: HeLa cell extract
# T1 sequence (O43776 1-548): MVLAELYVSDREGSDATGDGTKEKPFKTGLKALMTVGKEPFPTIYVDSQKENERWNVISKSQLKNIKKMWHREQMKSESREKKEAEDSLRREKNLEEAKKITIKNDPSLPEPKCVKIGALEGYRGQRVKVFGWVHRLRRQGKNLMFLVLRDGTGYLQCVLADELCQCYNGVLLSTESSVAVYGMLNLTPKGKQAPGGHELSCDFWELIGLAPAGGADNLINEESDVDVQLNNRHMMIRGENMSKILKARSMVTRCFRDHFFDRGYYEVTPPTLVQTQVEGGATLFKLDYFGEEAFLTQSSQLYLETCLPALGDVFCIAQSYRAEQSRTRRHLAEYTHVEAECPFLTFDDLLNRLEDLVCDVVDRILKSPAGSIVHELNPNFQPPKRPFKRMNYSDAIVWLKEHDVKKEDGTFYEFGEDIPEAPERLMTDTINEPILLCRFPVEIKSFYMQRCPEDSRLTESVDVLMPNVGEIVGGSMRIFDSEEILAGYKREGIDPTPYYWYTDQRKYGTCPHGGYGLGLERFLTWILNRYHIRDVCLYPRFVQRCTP
# [2] = biological target: T2, HeLa cell extract proteins (Homo sapiens, UniProt P17655); settings: protein CAPN2; HeLa
# T2 construct: endogenous in cells; host or cells: HeLa cell extract
# T2 sequence (P17655 1-700): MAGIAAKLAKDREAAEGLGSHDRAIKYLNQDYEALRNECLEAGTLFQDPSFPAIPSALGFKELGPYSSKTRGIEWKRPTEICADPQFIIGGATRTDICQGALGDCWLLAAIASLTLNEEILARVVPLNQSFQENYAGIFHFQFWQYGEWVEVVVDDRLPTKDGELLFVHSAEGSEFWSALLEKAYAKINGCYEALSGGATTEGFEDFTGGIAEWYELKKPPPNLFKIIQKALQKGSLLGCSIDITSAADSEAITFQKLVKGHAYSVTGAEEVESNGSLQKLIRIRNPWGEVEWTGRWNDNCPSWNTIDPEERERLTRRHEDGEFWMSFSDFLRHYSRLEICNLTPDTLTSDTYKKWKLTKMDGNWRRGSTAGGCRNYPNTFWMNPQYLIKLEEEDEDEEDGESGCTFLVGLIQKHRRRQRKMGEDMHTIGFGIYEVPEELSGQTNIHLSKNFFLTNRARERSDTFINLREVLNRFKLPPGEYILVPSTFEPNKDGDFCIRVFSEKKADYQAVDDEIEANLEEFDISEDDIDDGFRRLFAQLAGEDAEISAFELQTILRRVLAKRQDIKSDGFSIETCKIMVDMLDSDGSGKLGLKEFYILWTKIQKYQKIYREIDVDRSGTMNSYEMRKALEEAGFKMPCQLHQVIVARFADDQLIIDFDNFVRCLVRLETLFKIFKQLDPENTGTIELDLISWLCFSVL
# [3] = biological target: T3, HeLa cell extract proteins (Homo sapiens, UniProt Q08945); settings: protein SSRP1; HeLa
# T3 construct: endogenous in cells; host or cells: HeLa cell extract
# T3 sequence (Q08945 whole entry): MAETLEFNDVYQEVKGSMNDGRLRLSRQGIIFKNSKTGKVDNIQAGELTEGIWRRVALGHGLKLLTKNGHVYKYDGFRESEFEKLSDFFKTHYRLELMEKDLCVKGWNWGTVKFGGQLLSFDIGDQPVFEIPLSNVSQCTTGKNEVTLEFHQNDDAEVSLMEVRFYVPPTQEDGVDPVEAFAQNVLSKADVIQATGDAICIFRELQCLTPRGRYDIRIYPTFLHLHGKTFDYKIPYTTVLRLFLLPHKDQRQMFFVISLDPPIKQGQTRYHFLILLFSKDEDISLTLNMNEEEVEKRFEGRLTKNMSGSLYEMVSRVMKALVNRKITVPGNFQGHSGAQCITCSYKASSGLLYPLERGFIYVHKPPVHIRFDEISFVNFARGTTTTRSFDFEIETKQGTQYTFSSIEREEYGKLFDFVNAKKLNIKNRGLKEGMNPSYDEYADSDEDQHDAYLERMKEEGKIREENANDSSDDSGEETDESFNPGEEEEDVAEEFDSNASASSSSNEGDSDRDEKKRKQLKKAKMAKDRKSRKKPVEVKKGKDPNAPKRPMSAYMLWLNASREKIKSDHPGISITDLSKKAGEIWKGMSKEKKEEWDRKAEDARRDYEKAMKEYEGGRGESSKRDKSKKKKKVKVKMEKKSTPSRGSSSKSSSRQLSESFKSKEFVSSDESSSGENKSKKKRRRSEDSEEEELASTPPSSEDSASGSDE
# [4] = biological target: T4, HeLa cell extract proteins (Homo sapiens, UniProt Q9BUF5); settings: HeLa; protein TUBB6
# T4 construct: endogenous in cells; host or cells: HeLa cell extract
# T4 sequence (Q9BUF5 whole entry): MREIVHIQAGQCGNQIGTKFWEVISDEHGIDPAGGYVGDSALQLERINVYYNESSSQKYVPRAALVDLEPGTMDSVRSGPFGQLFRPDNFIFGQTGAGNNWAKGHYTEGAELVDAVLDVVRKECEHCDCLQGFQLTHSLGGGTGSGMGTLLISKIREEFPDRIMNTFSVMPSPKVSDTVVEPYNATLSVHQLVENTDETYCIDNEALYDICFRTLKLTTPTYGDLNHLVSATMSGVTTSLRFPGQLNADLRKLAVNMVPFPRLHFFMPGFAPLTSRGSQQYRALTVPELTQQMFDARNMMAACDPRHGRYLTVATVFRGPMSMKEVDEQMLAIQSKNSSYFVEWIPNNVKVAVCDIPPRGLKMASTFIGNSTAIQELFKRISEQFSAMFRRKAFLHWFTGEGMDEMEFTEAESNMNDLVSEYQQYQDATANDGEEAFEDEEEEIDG
# [5] = biological target: T5, HeLa cell extract proteins (Homo sapiens, UniProt Q9H7Z7); settings: captured protein PTGES2; HeLa
# T5 construct: endogenous in cells; host or cells: HeLa cell extract
# T5 sequence (Q9H7Z7 whole entry): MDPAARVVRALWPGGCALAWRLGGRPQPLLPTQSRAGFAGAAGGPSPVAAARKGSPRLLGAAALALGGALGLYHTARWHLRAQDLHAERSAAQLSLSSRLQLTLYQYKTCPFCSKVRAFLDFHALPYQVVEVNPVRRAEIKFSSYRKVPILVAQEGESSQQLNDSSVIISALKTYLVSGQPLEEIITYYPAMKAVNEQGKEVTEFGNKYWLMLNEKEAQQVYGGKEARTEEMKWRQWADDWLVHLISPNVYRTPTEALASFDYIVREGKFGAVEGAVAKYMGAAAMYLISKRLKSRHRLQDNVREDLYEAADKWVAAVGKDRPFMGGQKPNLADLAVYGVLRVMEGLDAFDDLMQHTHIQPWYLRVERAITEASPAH
# [6] = biological target: T6, HeLa cell extract proteins (Homo sapiens, UniProt O00231)
# T6 construct: endogenous in cells; host or cells: HeLa cell extract
# T6 sequence (O00231 whole entry): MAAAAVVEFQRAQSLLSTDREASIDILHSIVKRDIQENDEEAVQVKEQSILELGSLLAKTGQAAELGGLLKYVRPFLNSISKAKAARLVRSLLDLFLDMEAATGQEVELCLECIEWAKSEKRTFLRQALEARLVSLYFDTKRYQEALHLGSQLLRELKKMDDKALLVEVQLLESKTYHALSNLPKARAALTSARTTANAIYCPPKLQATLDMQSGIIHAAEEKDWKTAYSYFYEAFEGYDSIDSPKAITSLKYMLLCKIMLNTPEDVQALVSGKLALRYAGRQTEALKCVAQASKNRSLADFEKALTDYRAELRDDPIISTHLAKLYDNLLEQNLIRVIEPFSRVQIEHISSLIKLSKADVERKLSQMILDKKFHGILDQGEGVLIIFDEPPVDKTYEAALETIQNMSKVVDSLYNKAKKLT
# [7] = biological target: T7, HeLa cell extract proteins (Homo sapiens, UniProt P14373)
# T7 construct: endogenous in cells; host or cells: HeLa cell extract
# T7 sequence (P14373 1-513): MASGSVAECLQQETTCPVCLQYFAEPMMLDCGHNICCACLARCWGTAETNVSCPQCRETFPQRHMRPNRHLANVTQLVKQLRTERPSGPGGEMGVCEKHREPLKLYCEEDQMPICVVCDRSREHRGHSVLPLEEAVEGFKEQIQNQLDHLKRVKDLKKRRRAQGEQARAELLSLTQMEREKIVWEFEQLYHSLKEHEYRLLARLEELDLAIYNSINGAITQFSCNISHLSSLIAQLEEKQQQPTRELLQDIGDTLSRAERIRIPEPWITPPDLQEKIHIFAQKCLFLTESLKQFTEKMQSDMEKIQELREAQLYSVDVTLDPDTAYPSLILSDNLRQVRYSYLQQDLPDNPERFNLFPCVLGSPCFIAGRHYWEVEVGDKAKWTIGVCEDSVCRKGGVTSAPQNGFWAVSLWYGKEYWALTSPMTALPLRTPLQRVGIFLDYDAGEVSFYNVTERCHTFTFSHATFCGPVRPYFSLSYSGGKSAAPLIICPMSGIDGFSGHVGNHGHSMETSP
# [8] = biological target: T8, HeLa cell extract proteins (Homo sapiens, UniProt P18074)
# T8 construct: endogenous in cells; host or cells: HeLa cell extract
# T8 sequence (P18074 1-760): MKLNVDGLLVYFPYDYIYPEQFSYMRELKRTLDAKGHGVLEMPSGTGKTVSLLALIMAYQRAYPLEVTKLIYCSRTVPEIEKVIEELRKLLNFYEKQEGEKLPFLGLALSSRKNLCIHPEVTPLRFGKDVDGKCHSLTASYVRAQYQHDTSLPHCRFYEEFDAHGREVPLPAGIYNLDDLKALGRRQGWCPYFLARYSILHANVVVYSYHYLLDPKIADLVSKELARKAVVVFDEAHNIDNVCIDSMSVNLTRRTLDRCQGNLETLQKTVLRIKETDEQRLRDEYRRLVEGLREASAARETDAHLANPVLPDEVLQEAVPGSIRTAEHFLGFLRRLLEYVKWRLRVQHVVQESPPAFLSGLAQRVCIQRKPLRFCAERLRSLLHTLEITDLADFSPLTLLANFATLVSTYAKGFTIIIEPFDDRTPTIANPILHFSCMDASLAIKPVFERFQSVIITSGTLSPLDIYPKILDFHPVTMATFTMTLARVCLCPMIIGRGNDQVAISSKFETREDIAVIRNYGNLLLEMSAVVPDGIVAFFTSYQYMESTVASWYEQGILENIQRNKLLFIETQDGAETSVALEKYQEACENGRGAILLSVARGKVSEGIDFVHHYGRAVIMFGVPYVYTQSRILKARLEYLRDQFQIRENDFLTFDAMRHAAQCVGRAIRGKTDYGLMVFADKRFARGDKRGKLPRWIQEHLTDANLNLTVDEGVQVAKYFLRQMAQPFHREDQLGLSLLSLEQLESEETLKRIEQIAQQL
# [9] = biological target: T9, HeLa cell extract proteins (Homo sapiens, UniProt Q15370)
# T9 construct: endogenous in cells; host or cells: HeLa cell extract
# T9 sequence (Q15370 whole entry): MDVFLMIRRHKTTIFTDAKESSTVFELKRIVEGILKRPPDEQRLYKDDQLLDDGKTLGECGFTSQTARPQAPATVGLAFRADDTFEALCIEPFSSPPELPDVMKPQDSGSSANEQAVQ
# [10] = biological target: T10, HeLa cell extract proteins (Homo sapiens, UniProt Q96JI7)
# T10 construct: endogenous in cells; host or cells: HeLa cell extract
# T10 sequence (Q96JI7 whole entry): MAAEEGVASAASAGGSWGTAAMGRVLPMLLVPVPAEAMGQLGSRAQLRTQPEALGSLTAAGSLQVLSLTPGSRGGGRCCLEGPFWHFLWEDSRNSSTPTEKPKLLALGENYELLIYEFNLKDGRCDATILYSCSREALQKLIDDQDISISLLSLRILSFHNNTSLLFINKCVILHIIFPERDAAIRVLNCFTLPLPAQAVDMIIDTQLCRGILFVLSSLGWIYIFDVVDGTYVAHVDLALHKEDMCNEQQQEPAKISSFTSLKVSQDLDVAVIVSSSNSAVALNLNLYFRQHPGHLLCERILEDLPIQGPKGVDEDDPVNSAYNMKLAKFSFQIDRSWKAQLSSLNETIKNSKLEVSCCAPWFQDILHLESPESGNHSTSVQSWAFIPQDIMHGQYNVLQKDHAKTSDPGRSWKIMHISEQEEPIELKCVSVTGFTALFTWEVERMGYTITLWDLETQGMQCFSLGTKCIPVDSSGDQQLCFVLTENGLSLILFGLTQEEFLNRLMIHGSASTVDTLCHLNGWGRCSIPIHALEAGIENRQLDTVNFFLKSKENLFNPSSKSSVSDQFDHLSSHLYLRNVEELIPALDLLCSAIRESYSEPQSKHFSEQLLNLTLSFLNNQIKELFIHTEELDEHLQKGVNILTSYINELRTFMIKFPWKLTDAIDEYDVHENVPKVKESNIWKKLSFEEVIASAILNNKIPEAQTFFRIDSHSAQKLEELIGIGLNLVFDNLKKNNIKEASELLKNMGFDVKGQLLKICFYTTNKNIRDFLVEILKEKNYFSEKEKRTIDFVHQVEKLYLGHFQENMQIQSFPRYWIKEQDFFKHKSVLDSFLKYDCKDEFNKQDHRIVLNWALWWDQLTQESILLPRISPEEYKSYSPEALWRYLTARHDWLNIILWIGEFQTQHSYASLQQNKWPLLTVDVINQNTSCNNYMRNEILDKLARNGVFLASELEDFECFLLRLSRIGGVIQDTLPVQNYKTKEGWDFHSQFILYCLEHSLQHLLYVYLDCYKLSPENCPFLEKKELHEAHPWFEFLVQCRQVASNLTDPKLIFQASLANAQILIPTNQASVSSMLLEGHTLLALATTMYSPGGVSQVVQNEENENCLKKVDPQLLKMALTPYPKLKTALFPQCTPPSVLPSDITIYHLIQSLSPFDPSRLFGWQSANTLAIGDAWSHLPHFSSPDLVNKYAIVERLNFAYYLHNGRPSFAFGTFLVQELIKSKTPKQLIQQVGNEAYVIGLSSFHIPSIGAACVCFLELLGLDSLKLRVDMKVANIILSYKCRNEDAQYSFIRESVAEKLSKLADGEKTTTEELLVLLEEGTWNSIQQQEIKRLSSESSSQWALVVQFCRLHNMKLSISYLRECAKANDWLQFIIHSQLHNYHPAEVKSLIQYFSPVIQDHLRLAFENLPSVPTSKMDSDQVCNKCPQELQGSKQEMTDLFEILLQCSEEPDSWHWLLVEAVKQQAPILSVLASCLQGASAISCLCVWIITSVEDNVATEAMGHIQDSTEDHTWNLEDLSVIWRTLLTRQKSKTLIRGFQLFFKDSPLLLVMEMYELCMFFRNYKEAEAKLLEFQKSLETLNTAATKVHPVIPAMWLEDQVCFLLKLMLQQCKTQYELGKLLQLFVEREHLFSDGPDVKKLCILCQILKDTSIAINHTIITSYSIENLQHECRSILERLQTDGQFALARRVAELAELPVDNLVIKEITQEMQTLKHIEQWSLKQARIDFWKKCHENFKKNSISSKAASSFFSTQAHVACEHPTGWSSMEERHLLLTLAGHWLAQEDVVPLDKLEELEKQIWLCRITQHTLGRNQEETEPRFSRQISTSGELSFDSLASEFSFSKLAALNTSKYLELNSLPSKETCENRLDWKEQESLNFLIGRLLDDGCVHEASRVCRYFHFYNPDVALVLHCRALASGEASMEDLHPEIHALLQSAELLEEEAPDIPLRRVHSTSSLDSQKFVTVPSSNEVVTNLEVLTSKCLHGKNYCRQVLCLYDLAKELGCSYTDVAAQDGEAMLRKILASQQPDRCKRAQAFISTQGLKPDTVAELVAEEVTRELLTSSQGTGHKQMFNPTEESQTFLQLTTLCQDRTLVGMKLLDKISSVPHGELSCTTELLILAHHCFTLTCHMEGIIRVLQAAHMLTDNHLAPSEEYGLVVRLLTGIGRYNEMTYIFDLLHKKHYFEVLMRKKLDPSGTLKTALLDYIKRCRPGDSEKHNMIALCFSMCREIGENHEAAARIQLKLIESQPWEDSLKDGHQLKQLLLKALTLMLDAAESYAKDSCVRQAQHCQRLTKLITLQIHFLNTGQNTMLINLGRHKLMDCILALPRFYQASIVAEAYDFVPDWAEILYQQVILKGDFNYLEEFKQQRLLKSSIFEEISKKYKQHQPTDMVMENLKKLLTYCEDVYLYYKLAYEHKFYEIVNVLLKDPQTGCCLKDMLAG
Compound,fold changes relative to vehicle control [1],fold changes relative to vehicle control [2],fold changes relative to vehicle control [3],fold changes relative to vehicle control [4],fold changes relative to vehicle control [5],"fold changes relative to vehicle control ([6]; protein PSMD11, HeLa)","fold changes relative to vehicle control ([7]; HeLa, captured protein TRIM27)","fold changes relative to vehicle control ([8]; HeLa, captured protein ERCC2)","fold changes relative to vehicle control ([9]; protein TCEB2, HeLa)","fold changes relative to vehicle control ([10]; protein SPG11, HeLa)",also measured
CCCCCCOc1cccc(Cc2cnc(N)nc2N)c1 [compound 2],2.06,1.23,1.44,0.91,1.18,,,,,,
NCCOCCOCC(=O)Nc1nc2ncc(CNc3ccc(C(=O)NC(CCC(=O)O)C(=O)O)cc3)nc2c(=O)[nH]1 (centres unmarked) [compound 6],,,,,,1.11,0.89,0.98,1.43,1.86,
CCCCCCOc1ccc(Cc2cnc(N)nc2N)cc1 [compound 1],1.11,0.97,0.93,0.7,0.87,,,,,,
"Nc1nc2c(c(=O)[nH]1)N(C=O)C(CNc1ccc(C(=O)N[C@@H](CCC(=O)O)C(=O)O)cc1)CN2 (some centres unmarked) [LEU, leucovorin]",,,,,,1.03,0.97,1.14,0.9,1.3,
NCCCNc1ccc(C(=O)NC(CCC(=O)O)C(=O)O)cc1 (centres unmarked) [compound 7],,,,,,0.9,1.01,1,1.1,1.54,
"Nc1nc2[nH]cc(CCc3ccc(C(=O)N[C@@H](CCC(=O)O)C(=O)O)cc3)c2c(=O)[nH]1 [PTX, pemetrexed]",,,,,,,,,,,fold changes relative to vehicle control [6]: 1.02; fold changes relative to vehicle control [7]: 0.87; fold changes relative to vehicle control [8]: 0.98; fold changes relative to vehicle control [9]: 1.02; fold changes relative to vehicle control [10]: 1.38
Nc1nc2cccc(-c3ccccc3)c2n1Cc1ccc(Cl)c(Cl)c1 [compound 3],1.28,0.91,0.95,1.19,0.84,,,,,,

# From PMC6199744, “Development of Chemical Proteomics for the Folateome and Analysis of the Kinetoplastid Folateome” (ACS Infectious Diseases, 2018)
